US7153869B2, “Substituted amino acids as erythropoietin mimetics” (priority 1998, dated 2006)
Where two headings read alike, the source gives them in different places.

Biological target: T1, EBP-Ig (N-terminal 225 amino acids of the human EPO receptor joined to an Ig heavy chain) (Homo sapiens, UniProt P19235)
T1 construct: Ig heavy chain (fusion partner); made in house; host or cells: NSO cells (secreted into conditioned media)
T1 sequence (P19235 25-250 limits assumed): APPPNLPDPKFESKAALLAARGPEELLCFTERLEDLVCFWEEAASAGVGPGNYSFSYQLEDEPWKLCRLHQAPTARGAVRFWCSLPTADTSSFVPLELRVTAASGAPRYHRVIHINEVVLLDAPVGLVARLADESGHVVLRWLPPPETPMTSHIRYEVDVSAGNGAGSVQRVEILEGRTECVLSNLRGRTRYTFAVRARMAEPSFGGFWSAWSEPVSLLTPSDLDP
Assay: Inhibition of [125I]EPO binding to immobilized EBP-Ig (EPO binding protein-Ig), scintillation Flash plate competition assay
Conditions: for IC30 μM (Inhibition of EPO binding to EBP-Ig) / % inh @ 50 μM (Inhibition of EPO binding to EBP-Ig) / IC50: 0.5 nM [125I]EPO; for IC30 μM (Inhibition of EPO binding to EBP-Ig): 0–500 μM test compound; for % inh @ 50 μM (Inhibition of EPO binding to EBP-Ig): 50 μM test compound, average % inhibition; for IC50: read-out: IC50, μM (Inhibition of EPO binding to EBP-Ig), concentration reducing corrected total binding to 50%

[1] = read-out: % inh @ 50 μM (Inhibition of EPO binding to EBP-Ig)

| SMILES | EPO/EBP-Ig % inh @ 50 μM (50 μM compound, Table 13) [%] | IC30 μM (Inhibition of EPO binding to EBP-Ig) [µM] | IC50 [µM] | EPO/EBP-Ig % inh @ 50 μM (50 μM compound, Table 16A) [%] | other results |
| --- | --- | --- | --- | --- | --- |
| CC(C)(C)OC(=O)NCCCCC(C(=O)NCCCOCCOCCOCCCNC(=O)C(CCCCNC(=O)OC(C)(C)C)N(Cc1ccc(OCc2ccccc2)cc1)Cc1ccc(OCc2ccccc2)cc1)N(Cc1ccc(OCc2ccccc2)cc1)Cc1ccc(OCc2ccccc2)cc1 (stereo not drawn) [compound 257] | −26 |  |  |  |  |
| CC(C)(C)OC(=O)NCCCCC(C(=O)NCCCOCCCCOCCCNC(=O)C(CCCCNC(=O)OC(C)(C)C)N(Cc1ccc(OCc2ccccc2)cc1)Cc1ccc(OCc2ccccc2)cc1)N(Cc1ccc(OCc2ccccc2)cc1)Cc1ccc(OCc2ccccc2)cc1 (stereo not drawn) [compound 258] | −24 |  |  |  |  |
| CC(C)(C)OC(=O)NCCCCC(C(=O)NCCCCCCCCCCCCNC(=O)C(CCCCNC(=O)OC(C)(C)C)N(Cc1ccc(OCc2ccccc2)cc1)Cc1ccc(OCc2ccccc2)cc1)N(Cc1ccc(OCc2ccccc2)cc1)Cc1ccc(OCc2ccccc2)cc1 (stereo not drawn) [compound 259] | −13 |  |  |  |  |
| CC(C)(C)OC(=O)NCCCCC(C(=O)NCCOCCOCCNC(=O)C(CCCCNC(=O)OC(C)(C)C)N(Cc1ccc(OCc2ccccc2)cc1)Cc1ccc(OCc2ccccc2)cc1)N(Cc1ccc(OCc2ccccc2)cc1)Cc1ccc(OCc2ccccc2)cc1 (stereo not drawn) [compound 260] | −12 |  |  |  |  |
| NCCCCC(C(=O)NCCOCCOCCNC(=O)C(CCCCN)N(Cc1ccc(OCc2ccccc2)cc1)Cc1ccc(OCc2ccccc2)cc1)N(Cc1ccc(OCc2ccccc2)cc1)Cc1ccc(OCc2ccccc2)cc1 (stereo not drawn) [compound 261] | 51 | 1.5 | 2 |  | % inh @ 50 μM (Inhibition of EPO binding to EBP-Ig): 51% |
| O=C(O)CCC(=O)NCCCCC(C(=O)NCCOCCOCCNC(=O)C(CCCCNC(=O)CCC(=O)O)N(Cc1ccc(OCc2ccccc2)cc1)Cc1ccc(OCc2ccccc2)cc1)N(Cc1ccc(OCc2ccccc2)cc1)Cc1ccc(OCc2ccccc2)cc1 (stereo not drawn) [compound 262] |  | 1 | 1.5 |  |  |
| O=C(O)CCCC(=O)NCCCCC(C(=O)NCCOCCOCCNC(=O)C(CCCCNC(=O)CCCC(=O)O)N(Cc1ccc(OCc2ccccc2)cc1)Cc1ccc(OCc2ccccc2)cc1)N(Cc1ccc(OCc2ccccc2)cc1)Cc1ccc(OCc2ccccc2)cc1 (stereo not drawn) [compound 263] | 88 | 1 | 1.5 |  | % inh @ 50 μM (Inhibition of EPO binding to EBP-Ig): 88% |
| CC(C)(CC(=O)O)CC(=O)NCCCCC(C(=O)NCCOCCOCCNC(=O)C(CCCCNC(=O)CC(C)(C)CC(=O)O)N(Cc1ccc(OCc2ccccc2)cc1)Cc1ccc(OCc2ccccc2)cc1)N(Cc1ccc(OCc2ccccc2)cc1)Cc1ccc(OCc2ccccc2)cc1 (stereo not drawn) [compound 264] | 89 | 1.5 | 8 |  | % inh @ 50 μM (Inhibition of EPO binding to EBP-Ig): 89% |
| O=C(O)CCC(=O)NCCCCC(C(=O)NCCCOCCCCOCCCNC(=O)C(CCCCNC(=O)CCC(=O)O)N(Cc1ccc(OCc2ccccc2)cc1)Cc1ccc(OCc2ccccc2)cc1)N(Cc1ccc(OCc2ccccc2)cc1)Cc1ccc(OCc2ccccc2)cc1 (stereo not drawn) [compound 265] | 65 | 1 | 6 |  | % inh @ 50 μM (Inhibition of EPO binding to EBP-Ig): 65% |
| O=C(O)CCCC(=O)NCCCCC(C(=O)NCCCOCCCCOCCCNC(=O)C(CCCCNC(=O)CCCC(=O)O)N(Cc1ccc(OCc2ccccc2)cc1)Cc1ccc(OCc2ccccc2)cc1)N(Cc1ccc(OCc2ccccc2)cc1)Cc1ccc(OCc2ccccc2)cc1 (stereo not drawn) [compound 266] | 82 | 1 | 4 |  | % inh @ 50 μM (Inhibition of EPO binding to EBP-Ig): 82% |
| CC(C)(CC(=O)O)CC(=O)NCCCCC(C(=O)NCCCOCCCCOCCCNC(=O)C(CCCCNC(=O)CC(C)(C)CC(=O)O)N(Cc1ccc(OCc2ccccc2)cc1)Cc1ccc(OCc2ccccc2)cc1)N(Cc1ccc(OCc2ccccc2)cc1)Cc1ccc(OCc2ccccc2)cc1 (stereo not drawn) [compound 267] | 83 | 2 | 6 |  | % inh @ 50 μM (Inhibition of EPO binding to EBP-Ig): 83% |
| CC(C)(CC(=O)O)CC(=O)NCCCCC(C(=O)NCCCCCCCCCCCCNC(=O)C(CCCCNC(=O)CC(C)(C)CC(=O)O)N(Cc1ccc(OCc2ccccc2)cc1)Cc1ccc(OCc2ccccc2)cc1)N(Cc1ccc(OCc2ccccc2)cc1)Cc1ccc(OCc2ccccc2)cc1 (stereo not drawn) [compound 268] | 40 |  |  |  | % inh @ 50 μM (Inhibition of EPO binding to EBP-Ig): 40% |
| O=C(O)CCCC(=O)NCCCCC(C(=O)NCCCCCCCCCCCCNC(=O)C(CCCCNC(=O)CCCC(=O)O)N(Cc1ccc(OCc2ccccc2)cc1)Cc1ccc(OCc2ccccc2)cc1)N(Cc1ccc(OCc2ccccc2)cc1)Cc1ccc(OCc2ccccc2)cc1 (stereo not drawn) [compound 269] |  | 8 | 85 |  |  |
| O=C(O)CCC(=O)NCCCCC(C(=O)NCCCCCCCCCCCCNC(=O)C(CCCCNC(=O)CCC(=O)O)N(Cc1ccc(OCc2ccccc2)cc1)Cc1ccc(OCc2ccccc2)cc1)N(Cc1ccc(OCc2ccccc2)cc1)Cc1ccc(OCc2ccccc2)cc1 (stereo not drawn) [compound 270] | 56 | 7 | 100 |  | % inh @ 50 μM (Inhibition of EPO binding to EBP-Ig): 56% |
| O=C(O)CCC(=O)NCCCCC(C(=O)NCCCOCCOCCOCCCNC(=O)C(CCCCNC(=O)CCC(=O)O)N(Cc1ccc(OCc2ccccc2)cc1)Cc1ccc(OCc2ccccc2)cc1)N(Cc1ccc(OCc2ccccc2)cc1)Cc1ccc(OCc2ccccc2)cc1 (stereo not drawn) [compound 271] | 77 | 2 | 7 |  | % inh @ 50 μM (Inhibition of EPO binding to EBP-Ig): 77% |
| O=C(O)CCCC(=O)NCCCCC(C(=O)NCCCOCCOCCOCCCNC(=O)C(CCCCNC(=O)CCCC(=O)O)N(Cc1ccc(OCc2ccccc2)cc1)Cc1ccc(OCc2ccccc2)cc1)N(Cc1ccc(OCc2ccccc2)cc1)Cc1ccc(OCc2ccccc2)cc1 (stereo not drawn) [compound 272] |  | 5 | 10 |  |  |
| NCCCCC(C(=O)O)N(Cc1cccc(Oc2ccccc2)c1)C(=O)C=Cc1cccc(OCc2ccccc2)c1 (stereo not drawn) [compound 286] |  | 35 | 65 |  | inhibition at 50 µM [1]: 46%; inhibition at 50 µM (read-out: EPO/EBP-Ig % inh @ 50 μM, 50 μM compound, Table 15): 46% |

| SMILES | EPO/EBP-Ig % inh @ 50 μM (50 μM compound, Table 13) [%] | IC30 μM (Inhibition of EPO binding to EBP-Ig) [µM] | IC50 [µM] | EPO/EBP-Ig % inh @ 50 μM (50 μM compound, Table 16A) [%] | other results |
| --- | --- | --- | --- | --- | --- |
| Cc1ccc(Oc2cccc(/C=C/C(=O)N(Cc3cccc(Oc4ccccc4)c3)C(CCCCN)C(=O)O)c2)cc1 (stereo not drawn) [compound 287] |  |  |  |  | EPO/EBP-Ig % inh @ 50 μM (50 μM compound, Table 15): 36%; % inh @ 50 μM (Inhibition of EPO binding to EBP-Ig): 36% |
| CC(C)(C)c1ccc(Oc2cccc(/C=C/C(=O)N(Cc3cccc(Oc4ccccc4)c3)C(CCCCN)C(=O)O)c2)cc1 (stereo not drawn) [compound 288] |  |  |  |  | EPO/EBP-Ig % inh @ 50 μM (50 μM compound, Table 15): 27% |
| NCCCCC(C(=O)O)N(Cc1cccc(Oc2ccccc2)c1)C(=O)/C=C/c1ccc(Oc2ccccc2)cc1 (stereo not drawn) [compound 289] |  |  |  |  | EPO/EBP-Ig % inh @ 50 μM (50 μM compound, Table 15): 20% |
| COC(=O)[C@H](COC(C)(C)C)N(C/C=C/c1ccc(-c2ccccc2)cc1)C/C=C/c1ccc(-c2ccccc2)cc1 [compound 291] |  |  |  | 17 |  |
| COC(=O)[C@H](COC(C)(C)C)N(C/C=C/c1cccc(Oc2cccc(C(F)(F)F)c2)c1)C/C=C/c1cccc(Oc2cccc(C(F)(F)F)c2)c1 [compound 292] |  |  |  | 11 |  |
| COC(=O)[C@H](COC(C)(C)C)N(C/C=C/c1cccc(Oc2ccc(Cl)c(Cl)c2)c1)C/C=C/c1cccc(Oc2ccc(Cl)c(Cl)c2)c1 [compound 293] |  |  |  | 14 |  |
| COC(=O)[C@H](COC(C)(C)C)N(C/C=C/c1cccc(Oc2ccc(C(C)(C)C)cc2)c1)C/C=C/c1cccc(Oc2ccc(C(C)(C)C)cc2)c1 [compound 294] |  |  |  | 9 |  |
| CC(=O)O.COC(=O)[C@H](CO)N(C/C=C/c1ccc(-c2ccccc2)cc1)C/C=C/c1ccc(-c2ccccc2)cc1 [compound 295] |  |  |  | 10 |  |
| CC(=O)O.COC(=O)[C@H](CO)N(C/C=C/c1cccc(Oc2ccc(Cl)c(Cl)c2)c1)C/C=C/c1cccc(Oc2ccc(Cl)c(Cl)c2)c1 [compound 296] |  |  |  | 0 |  |
| CC(=O)O.COC(=O)[C@H](CO)N(C/C=C/c1cccc(Oc2cccc(C(F)(F)F)c2)c1)C/C=C/c1cccc(Oc2cccc(C(F)(F)F)c2)c1 [compound 297] |  |  |  | 0 |  |
| CC(=O)O.COC(=O)[C@H](CO)N(C/C=C/c1cccc(Oc2ccc(C(C)(C)C)cc2)c1)C/C=C/c1cccc(Oc2ccc(C(C)(C)C)cc2)c1 [compound 298] |  |  |  | 1 |  |
| CC(C)(C)OC[C@@H](C(=O)O)N(C/C=C/c1ccc(-c2ccccc2)cc1)C/C=C/c1ccc(-c2ccccc2)cc1 [compound 301] |  |  |  | 25 |  |
| CC(C)(C)OC[C@@H](C(=O)O)N(C/C=C/c1cccc(Oc2ccc(Cl)c(Cl)c2)c1)C/C=C/c1cccc(Oc2ccc(Cl)c(Cl)c2)c1 [compound 302] |  |  |  | 30 |  |
| CC(C)(C)OC[C@@H](C(=O)O)N(C/C=C/c1cccc(Oc2cccc(C(F)(F)F)c2)c1)C/C=C/c1cccc(Oc2cccc(C(F)(F)F)c2)c1 [compound 303] |  |  |  | 21 |  |
| CC(C)(C)OC[C@@H](C(=O)O)N(C/C=C/c1cccc(Oc2ccc(C(C)(C)C)cc2)c1)C/C=C/c1cccc(Oc2ccc(C(C)(C)C)cc2)c1 [compound 304] |  |  |  | 19 |  |
| O=C(O)C(CO)N(CC=Cc1ccc(-c2ccccc2)cc1)CC=Cc1ccc(-c2ccccc2)cc1 (stereo not drawn) [compound 305] |  | 35 | 225 |  | inhibition at 50 µM [1]: 48%; inhibition at 50 µM (read-out: EPO/EBP-Ig % inh @ 50 μM, 50 μM compound, Table 16A): 48% |
| COC(=O)[C@H](COC(C)(C)C)N(C/C=C/c1ccccc1)C/C=C/c1ccccc1 [compound 306] |  |  |  | 21 |  |
